Test results as given in patent US10683486B2, “Methods for producing hepatocytes” (BioLamina AB, priority 2015, dated 2020).

Columns and labels:
[1] = tested on: endoderm and hepatic cells differentiated from H9 hESCs; test: Immunostaining of endoderm and hepatoblast markers (hepatoblast specification); type: cell-based, human
Protocol: H9 human embryonic stem cells (hESCs) were cultured and maintained in a humidified 37° C., 5% CO2 incubator. Three different substrates were then prepared in 96-well plates. The first substrate was pre-coated with Matrigel® (MG), and served as a control. The second substrate was coated with 5 micrograms per square centimeter (μg/cm^2) of laminin-521 (LN-521).
Differentiation was initiated at 40% confluence, by replacing serum-free medium mTESR1 (Stem Cell Technologies) with endoderm differentiation medium—RPMI 1640 containing 1×B27 (Life Technologies), 100 ng/mL Activin A (PeproTech) and 50 ng/mL Wnt3a (R&D). The medium was changed every 24 hours, for 72 hours. On day 4, endoderm differentiation medium was replaced with hepatoblast differentiation medium, and this was renewed every second day for a further five days. The medium consisted of KO-DMEM (Life Technologies), Serum Replacement (Life Technologies), 0.5% Glutamax (Life Technologies), 1% non-essential amino acids (Life Technologies), 0.2% β-mercaptoethanol (Life Technologies) and 1% dimethyl sulofxide (Sigma) for 5 days. At Day 9, differentiating cells were cultured in hepatocyte maturation medium HepatoZYME (Life Technologies) containing 1% Glutamax (Life Technologies), supplemented with 10 ng/mL hepatocyte growth factor (Peprotech) and 20 ng/mL oncostatin m (Peprotech).
Immunocytochemistry analysis was subsequently performed on hESC-derived hepatocytes. Cell cultures were fixed in 100% ice-cold methanol at −20 degrees Celsius for 30 minutes, and adjacent cells were pre-washed twice with PBS buffer at room temperature. Cell monolayers were blocked with 0.1% PBS-Tween solution containing 10% bovine serum albumin for 1 hour. Subsequently, the monolayers were incubated with primary antibodies diluted in PBS-0.1% Tween/1% BSA at 4 degrees Celsius overnight. After 24 hours, the primary antibodies were removed and the fixed monolayers were washed three times with PBS-0.1% Tween/1% BSA. Cells were incubated with appropriate secondary antibodies diluted in PBS-0.1% Tween/1% BSA for one hour at room temperature and washed with three times with PBS. Cultures were then mounted with PermaFluor™ Aqueous Mounting Medium and counterstained with NucBlue Hoescht 33342. The cells were imaged with the Zeiss Axio Observer Z1 microscope with LD PlanNeoFluar objective lenses, and a Zeiss AxioCamMR3 camera was used for image acquisition. The images were processed through Zeiss Axiovision SE 64 Rel 4.8 and analyzed using Zeiss Axiovision version 4.9.1.0. The percentage of positive cells and standard deviation was estimated from at least five random fields of view.
Next, the efficiency of the differentiation process was measured. FIG. 4 is a set of 15 photomicrographs of endoderm and hepatic cells grown on the three different substrates, 10× or 20× magnification (indicated by scale), on day 3 of differentiation.
FOXA2 was expressed on all substrates at day 3. […] SOX17 staining was more varied across the three substrates; it was lowest on MG and highest on LN-521. As cell differentiation progressed and hepatic fate was specified, cells began expressing high levels of hepatoblast markers. AFP, HNF4a, and CK19 were expressed in the majority of cells on all three substrates. […] As shown, hepatoblast specification on all three matrices appeared equivalent and highly efficient.

[2] = tested on: stem cell derived hepatocytes; test: CYP3A and CYP1A2 activity using pGlo technology; type: cell-based, human; conditions: days 16-26
Protocol: Given that cell organisation and cell division are important factors in hepatocyte function, hepatocyte metabolic capacity in vitro was studied. Stem cell derived hepatocytes were first examined for cytochrome P450 expression using well characterised antisera. CYP3A and CYP1A2 activity were measured from days 16-26 using pGlo technology. CYP activity was expressed as relative light units (RLU) per milliliter of media per milligram of protein. Levels of significance were measured by student t-test.
All of the cells expressed high levels of each marker on each substrate.

[3] = tested on: primary human hepatocytes (PHHs); test: Primary human hepatocyte metabolism and protein production on the substrates; type: cell-based; conditions: female PHHs, ELISA
Protocol: Cryoplateable human hepatocytes were plated and maintained according to the instructions of vendor Life Technologies. Briefly, cryoplateable hepatocytes were resuscitated in thawing medium (Life Technologies, catalog no. CM3000) and plated onto the pre-coated 96 well plates. Cells-attached to all matrices efficiently and were maintained in an incubator set at 37 degrees Celsius and CO2 levels set to 5%. At 24 hours post-plating, the medium was changed to an incubation medium (catalog no. CM4000).
To determine whether these large changes in metabolic capacity correlated to increased protein production, the production of albumin and alpha fetoprotein (AFP) from hESC-derived and cryoplatable hepatocytes was quantified using commercially available enzyme-linked immunosorbent assay (ELISA) kits. The different media were collected at denoted time points during hESC differentiation, days 20-26. […] Samples were run in triplicate and measured on a FLUOStar Omega multi-mode microplate reader. Protein production was expressed as ng or μg of protein per milliliter of media, per milligram of protein. The results are shown in FIG. 7, where the expression of these two proteins was measured on days 20, 22, 24, and 26 of differentiation. Despite the large changes in metabolic capacity, no significant differences in albumin or AFP secretion was detected by ELISA. […]

[4] = tested on: MAN12 derived hepatocytes; test: Protein secretion (ELISA) and CYP p450 activity of MAN12 derived hepatocytes; type: cell-based, human; conditions: CYP1A2 and CYP3A activity, days 18, 20 and 24
Protocol: MAN12 cells, a GMP grade cell line, were plated on three different substrates. The first substrate was Matrigel® (MG), and served as a control. The second substrate was coated with 5 micrograms per square centimeter (μg/cm^2) of laminin-521 (LN-521). […] The cells were then differentiated according to the Cameron protocol.
FIG. 15 is a set of four bar graphs. The first row of two graphs show hepatocyte protein secretion for alpha fetoprotein and albumin as analyzed by ELISA on day 24 of differentiation (n=3). No significant differences were observed across the three matrices. The second row of two graphs show the metabolic function of CYP p450 activity on days 18, 20, and 24 for CYP1A2 and CYP3A activity.
Looking at both Example 4 and Example 5, the MAN11 and MAN12 cells differentiated efficiently on all three substrates, with the majority of cells (>80%) expressing albumin and CYP3A, as detected by immunostaining.

LN-521: substrate coated with 5 μg/cm^2 of laminin-521, the protein formed by joining α5, β2 and γ1 chains
AFP, percentage of positive cells and standard deviation ([1]; day 3 of differentiation): 98.3% ± 0.9
CK19, percentage of positive cells and standard deviation ([1]; day 3 of differentiation): 98.5% ± 1.0
FOXA2, percentage of positive cells and standard deviation ([1]; day 3 of differentiation): 80.4% ± 3.5
HNF4A, percentage of positive cells and standard deviation ([1]; day 3 of differentiation): 86.4% ± 2.3
SOX17, percentage of positive cells and standard deviation ([1]; day 3 of differentiation): 92.6% ± 1.8
increase in cell size of differentiated hepatocytes ([1]; see CK19 photomicrographs): approximately 2 fold
CYP1A2 activity compared with MG control [2]: significantly greater than it was on the control
albumin production [3]: enhanced
metabolic activity of MAN12 derived hepatocytes [4]: improved metabolic activity
